Experimental findings from patent US10052330B2, “Substituted pyrido[3,4-b]pyrazines as Syk inhibitors” (HUTCHISON MEDIPHARMA LIMITED, priority 2011, dated 2018) are described below.

SMILES strings stand for the structures. Where two headings read alike, the source gives them in different places.

Assay [1] relates to RBL-2H3 cells. Nature of the assay: IgE-induced Beta-hexosaminidase secretion in RBL-2H3 cells. The assay is classed as cell-based. The following applies: Rattus norvegicus, upper bound of each range is 'less than', read-out: IC50, IgE-induced Beta-hexosaminidase secretion.
Assay [2] deals with Syk kinase (Homo sapiens, UniProt P43405). Nature of the assay: Syk kinase enzymatic assay (Kit-Tyr 2 Peptide). The assay is classed as biochemical. The note with it: 8 concentrations, 1 μM down to 0.0003 μM; upper bound of each range is 'less than'; read-out: IC50: Enzymatic Activity (Syk kinase).
The mark [3] stands for this setting: RBL-2H3, RBL-2H3 cells sensitized with SPE-7, stimulated with DNP-BSA.

One may read the IC50 as the concentration at which inhibition is half-maximal. With `CC(O)[C@H]1CCN(c2nc(-c3ccc(N4CCOCC4)cc3)cc3nccnc23)C1` (stereo partly drawn) [Compound 174, (S)-1-(1-(7-(4-morpholinophenyl)pyrido[4,3-b]pyrazin-5-yl)pyrrolidin-3-yl)ethanol], the IC50 in assay [1] (setting [3]) and in assay [2] was 100 to 1000 nM each time.
In the case of `NC(=O)CCNc1nc(-c2ccc(N3CCCC3)cc2)cc2nccnc12` [Compound 177], the IC50 lay in the range of 1 to 100 nM in assay [1] (setting [3]) and 100 to 1000 nM in assay [2].
As for `CC(=O)N1CCC(c2ccc(-c3cc4nccnc4c(NC[C@@H]4CN(S(C)(=O)=O)CCO4)n3)cc2)CC1` [Compound 468], the values for the IC50 in assay [1] (setting [3]) and in assay [2] were 100 to 1000 nM and 1 to 100 nM, respectively.
As for `FC1(F)CCN(c2ccc(-c3cc4nccnc4c(NC[C@@H]4CNCCO4)n3)cc2)CC1` [Compound 229], the IC50 in assay [1] (setting [3]) and in assay [2] was 1 to 100 nM throughout.
In the case of `CN(C)c1cccc(-c2cc3nccnc3c(NCC3CCCNC3)n2)c1` (centres unmarked) [Compound 13], the IC50 in assay [1] (setting [3]) and in assay [2] was 100 to 1000 nM in each case.
For `COCC(=O)N1CCN(c2ccc(-c3cc4nccnc4c(NC[C@@H]4CNCCO4)n3)cc2)CC1` [Compound 279], the IC50 in assay [1] (setting [3]) and in assay [2] was 1 to 100 nM in each case.
For the molecule `O=C(CC(F)(F)F)N1CCN(c2ccc(-c3cc4nccnc4c(NC[C@@H]4CNCCO4)n3)cc2)CC1` [Compound 411], the IC50 in assay [1] (setting [3]) and in assay [2] was 1 to 100 nM throughout.
Take `Fc1cc(-c2cc3nccnc3c(NC[C@H]3CCCNC3)n2)ccc1N1CCOCC1` [Compound 129]: the IC50 in assay [1] (setting [3]) and in assay [2] was 1 to 100 nM in each case.
Consider `CN(c1ccc(-c2cc3nccnc3c(NC[C@@H]3CNCCO3)n2)cc1)C1CCOCC1` [Compound 285], for which the 50% inhibitory concentration (IC50) in assay [1] (setting [3]) and in assay [2] was 1 to 100 nM in each case.
`C[C@H]1CN(c2ccc(-c3cc4nccnc4c(NC[C@H]4CNCCC4(F)F)n3)cc2)CCO1` [Compound 397, (R)—N-((4,4-difluoropiperidin-3-yl)methyl)-7-(4-((S)-2-methylmorpholino)phenyl)pyrido[4,3-b]pyrazin-5-amine]: the IC50 in assay [1] (setting [3]) and in assay [2] was 1 to 100 nM in each case.
With `O=C(C(F)F)N1CCO[C@H](CNc2nc(-c3ccc(N4CCN(CCCO)CC4)cc3)cc3nccnc23)C1` [Compound 490], the IC50 in assay [1] (setting [3]) and in assay [2] was 1 to 100 nM throughout.
Turning to `CC(=O)N1CCC(c2ccc(-c3cc4nccnc4c(NC[C@@H]4CNCCO4)n3)cc2)CC1` [Compound 418], the half-maximal inhibitory concentration (IC50) in assay [1] (setting [3]) and in assay [2] was 1 to 100 nM throughout.
Regarding `CC1(C(=O)N2CCN(c3ccc(-c4cc5nccnc5c(NC[C@@H]5CNCCO5)n4)cc3)CC2)COC1` [Compound 404], the values for the IC50 in assay [1] (setting [3]) and in assay [2] were 100 to 1000 nM and 1 to 100 nM, respectively.
`CN(C)Cc1ccc(-c2cc3nccnc3c(NCC3CNCCC3(F)F)n2)cc1` (centres unmarked) [Compound 303]: the IC50 in assay [1] (setting [3]) and in assay [2] was 100 to 1000 nM throughout.
As to `O=C(CCO)N1CCC(c2ccc(-c3cc4nccnc4c(NC[C@@H]4CNCCO4)n3)cc2)CC1` [Compound 512], the values for the IC50 in assay [1] (setting [3]) and in assay [2] were 100 to 1000 nM and 1 to 100 nM, respectively.
In the same order, the values of `c1cnc2c(NCC3CNCCCO3)nc(-c3ccc(N4CCOCC4)cc3)cc2n1` (centres unmarked) [Compound 220] are 100 to 1000 nM and 100 to 1000 nM.
Regarding `CN1CCN(c2ccc(-c3cc4nccnc4c(NC[C@H]4CNCCC4(F)F)n3)cc2)CC1` [Compound 373, (R)—N-((4,4-difluoropiperidin-3-yl)methyl)-7-(4-(4-methylpiperazin-1-yl)phenyl)pyrido[4,3-b]pyrazin-5-amine], the IC50 in assay [1] (setting [3]) and in assay [2] was 100 to 1000 nM throughout.
Turning to `c1cnc2c(N[C@@H]3CCNC3)nc(-c3ccc(N4CCOCC4)cc3)cc2n1` [Compound 39], the IC50 in assay [1] (setting [3]) and in assay [2] was 100 to 1000 nM in each case.
In the case of `O=C1CCCN1c1ccc(-c2cc3nccnc3c(NC[C@@H]3CNCCO3)n2)cc1` [Compound 124], the IC50 in assay [1] (setting [3]) and in assay [2] was 100 to 1000 nM throughout.
Turning to `CN1CCCN(c2ccc(-c3cc4nccnc4c(NC[C@@H]4CNCCO4)n3)cn2)CC1` [Compound 260], the IC50 in assay [1] (setting [3]) and in assay [2] was 100 to 1000 nM each time.
On to `Clc1cccc(-c2cc3nccnc3c(NCC3CCCNC3)n2)c1` (centres unmarked) [Compound 24], for which the IC50 in assay [1] (setting [3]) and in assay [2] was 100 to 1000 nM throughout.
As to `CN1CCN(c2ccc(-c3cc4nccnc4c(NC[C@@H]4CNCCO4)n3)cn2)CC1` [Compound 259], the IC50 in assay [1] (setting [3]) and in assay [2] was 100 to 1000 nM in each case.
Consider `CS(=O)(=O)c1ccc(-c2cc3nccnc3c(NC[C@@H]3CNCCC3(F)F)n2)cc1` [Compound 390, (S)—N-((4,4-difluoropiperidin-3-yl)methyl)-7-(4-(methylsulfonyl)phenyl)pyrido[4,3-b]pyrazin-5-amine], for which the concentration for half-maximal inhibition (IC50) in assay [1] (setting [3]) and in assay [2] was 1 to 100 nM in each case.
On to `NS(=O)(=O)CCNc1nc(-c2ccc(N3CCOCC3)cc2)cc2nccnc12` [Compound 167], for which the IC50 in assay [1] (setting [3]) and in assay [2] was 100 to 1000 nM each time.
With `CCn1cc(-c2cc3nccnc3c(NCC3CNCCC3(F)F)n2)cn1` (centres unmarked) [Compound 311], the IC50 in assay [1] (setting [3]) and in assay [2] was 1 to 100 nM each time.
With `COc1cccc(-c2cc3nccnc3c(NCC3CCCNC3)n2)c1` (centres unmarked) [Compound 17], the IC50 in assay [1] (setting [3]) and in assay [2] was 100 to 1000 nM in each case.
Take `CN(c1ccc(-c2cc3nccnc3c(NCC3CNCCO3)n2)cc1)S(C)(=O)=O` (centres unmarked) [Compound 228]: the results for the IC50 in assay [1] (setting [3]) and in assay [2] were 100 to 1000 nM and 1 to 100 nM, respectively.
For `CCN1CCC(c2ccc(-c3cc4nccnc4c(NC[C@@H]4CN(S(C)(=O)=O)CCO4)n3)cc2)CC1` [Compound 479, (R)-7-(4-(1-ethylpiperidin-4-yl)phenyl)-N-((4-(methylsulfonyl)morpholin-2-yl)methyl)pyrido[4,3-b]pyrazin-5-amine], the IC50 is 1 to 100 nM in assay [1] (RBL-2H3 cells sensitized with SPE-7, stimulated with DNP-BSA) and 1 to 100 nM in assay [2].
With `Fc1cc(-c2cc3nccnc3c(NC[C@@H]3CNCCO3)n2)cc(F)c1N1CCOCC1` [Compound 135], the IC50 in assay [1] (setting [3]) and in assay [2] was 100 to 1000 nM in each case.
Take `CCS(=O)(=O)N1CCO[C@H](CNc2nc(-c3ccc(N4CCOCC4)cc3)cc3nccnc23)C1` [Compound 346]: the IC50 in assay [1] (setting [3]) and in assay [2] was 1 to 100 nM each time.
For the molecule `FC1(CNc2nc(-c3ccc(N4CCOCC4)cc3)cc3nccnc23)CCCNC1` (single isomer, unassigned) [Compound 377], the IC50 in assay [1] (setting [3]) and in assay [2] was 1 to 100 nM throughout.
Consider `CS(=O)(=O)c1ccc(-c2cc3nccnc3c(NCC3CNCCC3(F)F)n2)cc1` (centres unmarked) [Compound 310], for which the IC50 in assay [1] (setting [3]) and in assay [2] was 1 to 100 nM each time.
As for `COc1ccc(-c2cc3nccnc3c(NC[C@@H]3CNCCO3)n2)cc1F` [Compound 136], the IC50 in assay [1] (setting [3]) and in assay [2] was 1 to 100 nM each time.
Take `NC(=O)N[C@@H]1CCN(c2nc(-c3ccc(N4CCOCC4)cc3)cc3nccnc23)C1` [Compound 144]: the IC50 in assay [1] (setting [3]) and in assay [2] was 100 to 1000 nM throughout.
With `CCN(CC)c1ccc(-c2cc3nccnc3c(NCC3CCCNC3)n2)cc1` (centres unmarked) [Compound 73], the IC50 in assay [1] (setting [3]) is 100 to 1000 nM; in assay [2], 1 to 100 nM.
With `N#CC1(C(=O)N2CCN(c3ccc(-c4cc5nccnc5c(NCC5CNCCO5)n4)cc3)CC2)CC1` (centres unmarked) [Compound 423], the IC50 in assay [1] (setting [3]) and in assay [2] was 1 to 100 nM each time.
On to `CN(C)c1ccc(-c2cc3nccnc3c(NC[C@@H]3CNCCO3)n2)cc1C#N` [Compound 474], for which the IC50 in assay [1] (setting [3]) and in assay [2] was 1 to 100 nM in each case.
With `CNc1ccc(-c2cc3nccnc3c(NC[C@@H]3CNCCO3)n2)cc1C#N` [Compound 473], the IC50 in assay [1] (setting [3]) and in assay [2] was 1 to 100 nM throughout.
On to `Cc1ccc(-c2cc3nccnc3c(NCC3CCCNC3)n2)cc1` (centres unmarked) [Compound 22], for which the half-inhibitory concentration (IC50) in assay [1] (setting [3]) and in assay [2] was 1 to 100 nM throughout.
Consider `CNC(=O)COc1ccc(-c2cc3nccnc3c(NCC3CNCCC3(F)F)n2)cc1` (centres unmarked) [Compound 306], for which the IC50 in assay [1] (setting [3]) and in assay [2] was 1 to 100 nM in each case.
`CN(C)c1ccc(-c2cc3nccnc3c(NCCC(N)=O)n2)cc1` [Compound 175, 3-(7-(4-(dimethylamino)phenyl)pyrido[4,3-b]pyrazin-5-ylamino)propanamide]: the concentration for half-maximal inhibition (IC50) in assay [1] (setting [3]) and in assay [2] was 100 to 1000 nM throughout.
As for `FC1(F)CCNCC1CNc1nc(-c2cnn(C3CCOCC3)c2)cc2nccnc12` (centres unmarked) [Compound 314], the concentration for half-maximal inhibition (IC50) in assay [1] (setting [3]) and in assay [2] was 1 to 100 nM in each case.
Regarding `Cc1cc(-c2cc3nccnc3c(NCC3CNCCC3(F)F)n2)ccc1N1CCOCC1` (centres unmarked) [Compound 295], the IC50 in assay [1] (setting [3]) and in assay [2] was 1 to 100 nM throughout.
With `CNc1ccc(-c2cc3nccnc3c(NCC3CNCCC3(F)F)n2)cc1F` (centres unmarked) [Compound 300], the IC50 in assay [1] (setting [3]) and in assay [2] was 1 to 100 nM throughout.
With `CN1CCN(c2ccc(-c3cc4nccnc4c(NC[C@H]4CCCNC4)n3)cc2F)CC1` [Compound 237], the IC50 in assay [1] (setting [3]) and in assay [2] was 1 to 100 nM each time.
With `O=C1CCC(CNc2nc(-c3ccc(N4CCOCC4)cc3)cc3nccnc23)CN1` (centres unmarked) [Compound 168], the IC50 in assay [1] (setting [3]) and in assay [2] was 100 to 1000 nM each time.
Regarding `c1cnc2c(NC[C@@H]3CNCCO3)nc(-c3cnn(C4CCOCC4)c3)cc2n1` [Compound 261], the IC50 in assay [1] (setting [3]) and in assay [2] was 100 to 1000 nM each time.
In the case of `CN1CCN(c2ccc(-c3cc4nccnc4c(NCC4CNCCC4(F)F)n3)cc2)CC1` (centres unmarked) [Compound 293], the IC50 is 100 to 1000 nM in assay [1] (setting [3]) and 1 to 100 nM in assay [2].
For `CN1CCN(c2ccc(-c3cc4nccnc4c(NC[C@@H]4CN(C(=O)C(F)F)CCO4)n3)cc2)CC1` [Compound 449, (R)-2,2-difluoro-1-(2-((7-(4-(4-methylpiperazin-1-yl)phenyl)pyrido[4,3-b]pyrazin-5-ylamino)methyl)morpholino)ethanone], in that order: 1 to 100 nM and 1 to 100 nM.
